Measurements reported in patent US11040976B2, “Substrate selective inhibitors of insulin-degrading enzyme (IDE) and uses thereof” (President and Fellows of Harvard College, priority 2015, dated 2021).

Tests used:
[1] = target: T1, IDE (R&D), substrate glucagon (Homo sapiens, UniProt P14735); test: HTRF assay for IDE-mediated degradation of glucagon; assay type: biochemical; conditions: compounds 67 μM, 0° C. for 10 minutes, versus DMSO alone, FIG. 5
T1 construct: recombinant human IDE42-1019 (R&D Systems); purchased R&D
T1 sequence (P14735 42-1019): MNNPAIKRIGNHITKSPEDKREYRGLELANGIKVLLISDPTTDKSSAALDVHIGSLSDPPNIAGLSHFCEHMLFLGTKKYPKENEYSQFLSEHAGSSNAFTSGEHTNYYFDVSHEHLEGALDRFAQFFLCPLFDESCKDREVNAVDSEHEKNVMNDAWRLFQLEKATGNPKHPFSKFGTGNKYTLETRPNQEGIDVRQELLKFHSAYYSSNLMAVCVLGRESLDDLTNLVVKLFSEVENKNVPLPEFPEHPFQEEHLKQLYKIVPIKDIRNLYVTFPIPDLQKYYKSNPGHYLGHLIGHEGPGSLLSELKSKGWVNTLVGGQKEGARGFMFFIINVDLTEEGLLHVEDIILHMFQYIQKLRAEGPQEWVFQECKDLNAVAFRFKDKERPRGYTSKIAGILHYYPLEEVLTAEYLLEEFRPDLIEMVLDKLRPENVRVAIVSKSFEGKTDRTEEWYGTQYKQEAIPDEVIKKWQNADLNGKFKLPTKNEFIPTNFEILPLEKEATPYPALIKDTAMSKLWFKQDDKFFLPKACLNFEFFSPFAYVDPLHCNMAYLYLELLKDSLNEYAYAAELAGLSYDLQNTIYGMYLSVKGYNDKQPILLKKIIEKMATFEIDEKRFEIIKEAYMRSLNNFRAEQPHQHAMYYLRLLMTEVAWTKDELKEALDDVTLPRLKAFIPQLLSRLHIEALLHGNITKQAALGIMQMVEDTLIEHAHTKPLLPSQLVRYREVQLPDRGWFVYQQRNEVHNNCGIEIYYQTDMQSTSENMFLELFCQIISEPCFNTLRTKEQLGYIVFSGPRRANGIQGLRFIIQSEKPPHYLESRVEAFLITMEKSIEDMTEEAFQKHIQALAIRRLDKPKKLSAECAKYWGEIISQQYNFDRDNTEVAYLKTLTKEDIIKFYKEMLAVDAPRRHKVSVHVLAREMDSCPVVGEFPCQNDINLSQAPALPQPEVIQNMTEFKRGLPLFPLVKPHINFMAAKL
Description: A solution of 0.05 μg/mL IDE (R&D) in “Diluent #5” (CisBio, 24 μL) was transferred to a 200 μL tube strip, and combined with 1 μL of each inhibitor (10 mM in DMSO, or as a 3-fold dilution series). […] This procedure was optimized to result in ˜75% degradation of glucagon. The reaction was terminated by 1 μL of inhibitor Ii1 (5 μM) and chilled on ice. The remaining glucagon was quantified using 10 μL of the quenched enzymatic reaction using the sensitive-range protocol Homogeneous Time-Resolved FRET Glucagon assay (CisBio® 62GLCPEF, see FIG. 3) in 20 μL total volume according to the manufacturer's instructions (384 well-plate Greiner 784904 non-binding). Fluorescence was measured using a Tecan M1000Pro plate reader (excitation=340 nm, emission=665 and 620 nm, lag time=60 μs) according the assay manufacturer's recommendations. Blank wells and glucagon standard curve were included in the assay.
FIG. 4 compares the determined endpoint for insulin degradation with of glucagon degradation for a DMSO control, 6bK at 10 μM, and exemplary compounds of the invention at concentrations of 67 μM.
The HTRF endpoint assay for insulin and glucagon was performed over a range of concentrations for several potential inhibitors and for 6bK.

[2] = target: T2, IDE (R&D), substrate insulin (Homo sapiens, UniProt P14735); test: HTRF endpoint assay for IDE-mediated degradation of insulin; assay type: biochemical; conditions: HTRF endpoint assays for insulin and glucagon, FIG. 4; compounds 67 μM, 6bK 10 μM
T2 construct: recombinant human IDE42-1019 (R&D Systems); purchased R&D
T2 sequence (P14735 42-1019): T1 sequence (P14735 42-1019)
Description: A solution of 0.8 μg/mL IDE (R&D) in pH 7.5 buffer containing 20 mM HEPES, 135 mM NaCl (24 μL) was transferred to a 200 μL tube strip, and combined with 1 μL of each inhibitor (10 mM in DMSO, or as a 3-fold dilution series). A solution of insulin in “Assay Diluent” (CisBio, 25 μL) was added to a final concentration of 20 ng/mL, and incubated at 30° C. for 15 minutes. This procedure was optimized to result in ˜75% degradation of insulin. The reaction was terminated by adding 25 μL of inhibitor Ii1 (200 nM) and chilled on ice. The remaining insulin was quantified using 10 μL of the quenched enzymatic reaction using the sensitive-range protocol Homogeneous Time-Resolved FRET Insulin assay (CisBio® 62INSPEB, see FIG. 3) in 20 μL total volume according to the manufacturer's instructions (384 well-plate Greiner 784904 non-binding). Fluorescence was measured using a Tecan M1000Pro plate reader (excitation=320 nm, emission=665 and 620 nm, lag time=60 μs) according the assay manufacturer's recommendations. Blank wells and insulin standard curve were included in the assay.
FIG. 4 compares the determined endpoint for insulin degradation with of glucagon degradation for a DMSO control, 6bK at 10 μM, and exemplary compounds of the invention at concentrations of 67 μM. […]

initial rates of glucagon cleavage [1] | Structure (SMILES) | selectivity between insulin degradation and glucagon degradation [2]
reduced | Cc1cccc(-c2ccc([C@@H]3[C@@H](CO)N4CCCCN(S(=O)(=O)c5ccccc5C)C[C@@H]34)cc2)c1 [compound 297] | 
 | NCCCC[C@@H]1NC(=O)/C=C/C(=O)N[C@H](C(N)=O)CCCCNC(=O)[C@@H](Cc2ccc(C(=O)c3ccccc3)cc2)NC(=O)[C@H](CC2CCCCC2)NC1=O [6bK, reference compound] | no selectivity
